Test results as given in ChEMBL document CHEMBL1287777 (Bioorg Med Chem Lett, 2010).

Columns and labels:
Carbonic anhydrase 2 = Carbonic anhydrase 2 (Homo sapiens, UniProt P00918)
Carbonic anhydrase 9 = Carbonic anhydrase 9 (Homo sapiens, UniProt Q16790); assay: Inhibition of human recombinant CA9 catalytic domain by stopped-flow CO2 hydration method
Carbonic anhydrase 1 = Carbonic anhydrase 1 (Homo sapiens, UniProt P00915); assay: Inhibition of full length human CA1 cytosolic isoform by stopped-flow CO2 hydration method
Sequence of Carbonic anhydrase 1 (P00915 whole entry, canonical isoform): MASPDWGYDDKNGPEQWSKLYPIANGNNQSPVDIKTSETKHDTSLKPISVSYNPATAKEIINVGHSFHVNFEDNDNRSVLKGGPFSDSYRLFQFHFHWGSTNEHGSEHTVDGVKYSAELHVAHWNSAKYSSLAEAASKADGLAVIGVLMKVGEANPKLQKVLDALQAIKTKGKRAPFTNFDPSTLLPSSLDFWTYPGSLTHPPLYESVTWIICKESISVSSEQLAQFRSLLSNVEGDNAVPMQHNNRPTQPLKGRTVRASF

Row | SMILES | Ki (Carbonic anhydrase 2) [µM] | Ki (Carbonic anhydrase 9) [µM] | Ki (Carbonic anhydrase 1) [µM]
1 | CC(=O)c1cc2ccc(=O)oc2cc1O | > 100 | – | –
2 | CCC(=O)c1cc2ccc(=O)oc2cc1O | > 100 | 8.02 | –
3 | CCC(=O)c1c(O)ccc2ccc(=O)oc12 | > 100 | – | > 100
4 | COc1cc2oc(=O)ccc2cc1C(C)=O | > 100 | 7.8 | > 100
5 | CCOc1cc2oc(=O)ccc2cc1C(C)=O | – | 7.4 | > 100
6 | CCCOc1cc2oc(=O)ccc2cc1C(C)=O | > 100 | 7.58 | > 100
7 | CCCCOc1cc2oc(=O)ccc2cc1C(C)=O | > 100 | > 100 | > 100
8 | COc1ccc2ccc(=O)oc2c1C(C)=O | > 100 | 0.0783 | > 100
9 | CCOc1ccc2ccc(=O)oc2c1C(C)=O | > 100 | 0.0708 | > 100
10 | CCCOc1ccc2ccc(=O)oc2c1C(C)=O | > 100 | 0.0567 | > 100
11 | CCCCOc1ccc2ccc(=O)oc2c1C(C)=O | > 100 | – | > 100
12 | CCC(=O)c1c(OC)ccc2ccc(=O)oc12 | > 100 | 0.0378 | > 100
13 | CCOc1ccc2ccc(=O)oc2c1C(=O)CC | > 100 | 0.0467 | > 100
14 | CCCOc1ccc2ccc(=O)oc2c1C(=O)CC | > 100 | – | > 100
15 | CC(=O)c1cc2ccc(=O)oc2cc1OCc1ccccc1 | – | > 100 | > 100
16 | CC(=O)c1cc2ccc(=O)oc2cc1OCCC12CC3CC(CC(C3)C1)C2 | > 100 | > 100 | > 100
17 | CC(=O)c1c(OCc2ccccc2)ccc2ccc(=O)oc12 | – | 0.0723 | > 100
18 | CC(=O)c1c(OCCC23CC4CC(CC(C4)C2)C3)ccc2ccc(=O)oc12 | > 100 | 0.0639 | > 100
19 | CC(=O)c1c(O)ccc2ccc(=O)oc12 | > 100 | 0.073 | > 100
